Reference: ChEMBL document CHEMBL1152032, “Inhibition of interleukin-1 converting enzyme by N-Acyl-aspartic acid ketones” (Bioorg Med Chem Lett, 1995)

target: T1, Caspase-1 (Homo sapiens, UniProt P29466); assay: Inhibition of IL-1 beta converting enzyme (ICE) in human blood monocytes; assay type: cell-based
T1 sequence (P29466 whole entry): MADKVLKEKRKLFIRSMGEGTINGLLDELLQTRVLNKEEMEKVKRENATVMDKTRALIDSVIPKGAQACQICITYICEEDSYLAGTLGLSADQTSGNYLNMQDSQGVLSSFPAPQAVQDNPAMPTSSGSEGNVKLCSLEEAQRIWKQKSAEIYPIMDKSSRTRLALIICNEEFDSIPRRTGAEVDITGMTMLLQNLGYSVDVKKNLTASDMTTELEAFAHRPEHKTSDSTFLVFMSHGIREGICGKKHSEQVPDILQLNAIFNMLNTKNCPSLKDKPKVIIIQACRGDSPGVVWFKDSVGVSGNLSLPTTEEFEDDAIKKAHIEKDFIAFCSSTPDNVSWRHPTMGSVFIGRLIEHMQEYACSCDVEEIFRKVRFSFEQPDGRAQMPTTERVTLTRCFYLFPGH

Row | Ki [µM] | SMILES
1 | 24 | O=C(O)C[C@H](NC(=O)OCc1ccccc1)C(=O)COCCCc1ccccc1
2 | > 100 | C=CCOC(=O)N[C@@H](CC(=O)O)C(=O)CCCCc1ccccc1
3 | > 100 | C=CCOC(=O)N[C@@H](CC(=O)O)C(=O)CNCc1ccccc1
4 | 20 | C=CCOC(=O)N[C@@H](CC(=O)O)C(=O)COC(=O)CCc1ccccc1
5 | > 100 | C=CCOC(=O)N[C@@H](CC(=O)O)C(=O)CNC(c1ccccc1)c1ccccc1
6 | 3.5 | C=CCOC(=O)N[C@@H](CC(=O)O)C(=O)COC(=O)CCC1CCCCC1
7 | 74 | C=CCOC(=O)N[C@@H](CC(=O)O)C(=O)COC(=O)NCc1ccccc1
8 | 90 | C=CCOC(=O)N[C@@H](CC(=O)O)C(=O)COC(=O)/C=C/c1ccccc1
9 | > 100 | C=CCOC(=O)N[C@@H](CC(=O)O)C(=O)CN(C)CCc1ccccc1
10 | 70 | C=CCOC(=O)N[C@@H](CC(=O)O)C(=O)CNC(Cc1ccccc1)c1ccccc1 (stereo partly specified)
11 | 67 | C=CCOC(=O)N[C@@H](CC(=O)O)C(=O)CNCCCc1ccccc1
12 | 42 | CC(=O)N[C@@H](Cc1ccc(O)cc1)C(=O)N[C@H](C(=O)N[C@@H](C)C(=O)N[C@@H](CC(=O)O)C(=O)CCCCc1ccccc1)C(C)C
13 | 68 | C=CCOC(=O)N[C@@H](CC(=O)O)C(=O)CN(CCc1ccccc1)Cc1ccccc1
14 | 4.4 | C=CCOC(=O)N[C@@H](CC(=O)O)C(=O)CNCCc1ccccc1
15 | 27 | C=CCOC(=O)N[C@@H](CC(=O)O)C(=O)CSCCCc1ccccc1
16 | 23 | C=CCOC(=O)N[C@@H](CC(=O)O)C(=O)COC(=O)CCOc1ccccc1
